# Patent publication US4036961A (priority 1972, dated 1977)
# Counter-ions that a name gives are not always drawn.
# Legend:
# [1] = biological target: hydroxymethyldihydropteridine pyrophosphokinase (HMPPS) (Escherichia coli, UniProt P26281); test: Inhibition of the enzymes of dihydropteroate biosynthesis (ATP-γ-P32 transfer assay for HMPPS; dihydropteroate-C14 formation for synthetase); assay type: biochemical; conditions: enzymes from E. coli extract; tests (a) HMPPS and (b) synthetase of Example 5; read-out: concentration giving 50% inhibition
# Procedure: The inhibiting activity against HMPPS of a selected compound of formula (I) can, for instance, be tested by monitoring the transfer of the terminal phosphate of adenosine triphosphate ATP-γ-P^32 to `dihydropteridine`. […] Such inhibition may, for instance, be easily and simply carried out by incubating an extract of E. coli with pAB-7-C^14, ATP, Mg and `dihydropteridine`. The formation of the dihydropteroate-C^14 can be quantitatively assayed after separating the unreated pAB substrate, for instance by chromatography. […] Preferably the value is 25 μM or less, such as in the range between […]. Generally a value below 7μM is desirable. […]
# phosphate of ATP-γ-P^32 to Pt could be monitored and correlated […]
# Tubes 1 to 9 containing the amounts of components shown in the Table, were filled up to 200μl with distilled water, incubated for 60 minutes at 37° C and then chilled on ice. […] The charcoal and the filter were then radioactively counted.
# The radioactive count from the contents of tubes 2 and 3 was taken as the maximum count, since these tubes contained no test compound and thus gave 0% enzyme inhibition. The percentage inhibition produced by the contents of the remaining tubes could then be calculated by relating their radioactive count to the maximum, as determined above. […]
# [2] = tested on: Cl. perfringens; conditions: disclosed in British Pat. No. 1303171 and Application No. 36289/70; cited from earlier work
# [3] = tested on: Derm. dermatonomous; conditions: disclosed in British Pat. No. 1303171 and Application No. 36289/70; cited from earlier work
# hydroxymethyldihydropteridine pyrophosphokinase (HMPPS), sequence (P26281 whole entry): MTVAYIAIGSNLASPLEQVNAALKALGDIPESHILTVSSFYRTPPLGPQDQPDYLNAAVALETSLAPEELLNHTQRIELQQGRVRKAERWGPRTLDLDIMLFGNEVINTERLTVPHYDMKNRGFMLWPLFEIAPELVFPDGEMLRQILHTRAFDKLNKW
SMILES,IC50 [1] [µM],bacteriostatic activity [2],bacteriostatic activity [3]
"CC1(C)Nc2nc(N)nc(O)c2N=C1CBr [2-Amino-4-hydroxy-6-bromomethyl-7,7-dimethyl-7,8-dihydropteridine hydrobromide]",5,–,–
"CC1(C)Nc2nc(N)nc(O)c2N=C1CO [2-amino-4-hydroxy-6-hydroxymethyl-7,7-dimethyl-7,8-dihydropteridine]",–,particularly effective,particularly effective
"CC1=Nc2c(O)nc(N)nc2NC1(C)C [2-amino-4-hydroxy-6-methyl-7,7-dimethyl-7,8-dihydropteridine]",–,particularly effective,particularly effective
"CC1(C)Nc2nc(N)nc(O)c2N=C1C(Br)Br [the 6-dibromomethyl analogue, 2-Amino-4-hydroxy-6-dibromomethyl-7,7-dimethyl-7,8-dihydropteridine hydrobromide]",25,–,–
